According to patent US6914065B2, “Imidazo[1,2-C]pyrimidine derivatives as ligands for gaba receptors” (Merck Sharp & Dohme Ltd., priority 2000, dated 2005):

melting point: 119 °C
SMILES: Cc1cc2ncc(-c3cccc(-c4ccccc4C#N)c3)n2cn1 [Example 1, 3′-(7-Methylimidazo[1,2-c]pyrimidin-3-yl)biphenyl-2-carbonitrile]
